Results published in US20180028667A1, “AQUEOUS LIQUID AGENT” (SENJU PHARMACEUTICAL CO., LTD., priority 2014, published 2018).

Assay: Measurement of solubility of compound A in various solvents (oil components)
Format: physicochemical
Conditions: 25° C., stirred 24 hr
Description: An excess amount (about 0.2 g) of compound A was added to various solvents (10 g) described in Table 7, and the mixture was stirred at 25° C. for 24 hr. Thereafter, the solvent was filtered off through a 0.45 μm non-aqueous filter while maintaining the temperature. The content of compound A contained in the filtrate was measured in the same manner as in Experimental Example 1, and the solubility of compound A in various solvents was calculated.

**Q.** Which results are given for `Cc1cc(C(=O)Nc2cc(Oc3ccc4nc(NC(=O)C5CC5)cn4n3)ccc2C)n(C)n1` [compound A, N-[5-({2-[(cyclopropylcarbonyl)amino]imidazo[1,2-b]pyridazin-6-yl}oxy)-2-methylphenyl]-1,3-dimethyl-1H-pyrazole-5-carboxamide]?
**A.** solubility (solvent castor oil): 0.311%; solubility (solvent corn oil): 0.008%; solubility (solvent cottonseed oil): 0.008%; solubility (solvent olive oil): 0.009%; solubility (solvent rape seed oil): 0.007%; solubility (solvent soybean oil): 0.007%
